From patent US4005076A, “Hydrazones of 3-formylrifamycin SV” (Gruppo Lepetit S.p.A., priority 1971, dated 1977)
Converted amounts (≈) assume the structure as drawn.

Key:
[1] = test system: Staphylococcus aureus strain which is resistant to rifampicin (Staph. aureus Tour); assay: in vitro minimal inhibitory concentration against rifampicin-resistant Staphylococcus aureus strain; type: cell-based; details: Staphylococcus aureus, read-out: Minimal inhibitory concentration
Procedure: In particular, compounds illustrative of the invention at concentrations of about 10 to 20 μg/ml or less inhibit the growth of a Staph. aureus Tour strain resistant to rifampicin.
One of the most important characteristics of the new hydrazones is their activity against rifampicin-resistant Staphylococcus aureus strains. Rifampicin, that is 3-(4-methyl-1-piperazinyl)iminomethylrifamycin SV, disclosed in U.S. Pat. No. 3,342,810, is the most known and widely used rifamycin derivative in therapeutic practice.
The data of the new compounds are compared with those of representative hydrazones disclosed in U.S. Pat. No. 3,342,810.

[2] = biological target: T1, mouse embryo RNA-polymerase II (ME-RNA-P2) (Mus musculus, UniProt P08775+Q8CFI7); assay: effect on mouse embryo RNA-polymerase II; type: biochemical; details: Single Stranded Calf-Thymus DNA; for remaining activity at 10 µg: 10μg, read-out: % Control Activity of ME-RNA-P2 at 10μg; for remaining activity at 100 µg: 100μg, read-out: % Control Activity of ME-RNA-P2 at 100μg
T1 construct: mouse embryo RNA-polymerase II (ME-RNA-P2); endogenous in cells; host or cells: mouse embryo cells
Source text: (§1) Calf-Thymus DNA. Me-RNA-P1 and ME-RNA-P2 : Single Stranded

[3] = biological target: T2, sarcoma virus DNA-polymerases (SSV-DNA-P) (Woolly monkey sarcoma virus, UniProt P03359); assay: effect on activity of SSV-polymerase; type: biochemical; details: template Oligo dT.Poly rA
T2 construct: sarcoma virus DNA-polymerases (SSV-DNA-P)
Source text: Templates used in the Enzymatic Assays were the following: SSV-DNA-P: […]

[4] = test system: mouse embryo DNA-polymerase I (ME-DNA-P1); assay: effect on mouse embryo DNA-polymerase I; type: biochemical; details: activated Calf-Thymus DNA
Source text: (§2) Oligo dT.Poly rA. ME-DNA-P1 and ME-DNA-p2 : activated

[5] = biological target: T3, mouse embryo RNA-polymerase I (ME-RNA-P1) (Mus musculus, UniProt O35134+P70700); assay: effect on mouse embryo RNA-polymerase I; type: biochemical; details: Single Stranded Calf-Thymus DNA; for remaining activity at 10 µg: 10μg, read-out: % Control Activity of ME-RNA-P1 at 10μg; for remaining activity at 100 µg: 100μg, read-out: % Control Activity of ME-RNA-P1 at 100μg
T3 construct: mouse embryo RNA-polymerase I (ME-RNA-P1); endogenous in cells; host or cells: mouse embryo cells
Source text: as §1

[6] = test system: mouse embryo DNA-polymerase II (ME-DNA-P2); assay: effect on mouse embryo DNA-polymerase II; type: biochemical; details: activated Calf-Thymus DNA
Source text: as §2

T2 sequence (P03359 642-1310): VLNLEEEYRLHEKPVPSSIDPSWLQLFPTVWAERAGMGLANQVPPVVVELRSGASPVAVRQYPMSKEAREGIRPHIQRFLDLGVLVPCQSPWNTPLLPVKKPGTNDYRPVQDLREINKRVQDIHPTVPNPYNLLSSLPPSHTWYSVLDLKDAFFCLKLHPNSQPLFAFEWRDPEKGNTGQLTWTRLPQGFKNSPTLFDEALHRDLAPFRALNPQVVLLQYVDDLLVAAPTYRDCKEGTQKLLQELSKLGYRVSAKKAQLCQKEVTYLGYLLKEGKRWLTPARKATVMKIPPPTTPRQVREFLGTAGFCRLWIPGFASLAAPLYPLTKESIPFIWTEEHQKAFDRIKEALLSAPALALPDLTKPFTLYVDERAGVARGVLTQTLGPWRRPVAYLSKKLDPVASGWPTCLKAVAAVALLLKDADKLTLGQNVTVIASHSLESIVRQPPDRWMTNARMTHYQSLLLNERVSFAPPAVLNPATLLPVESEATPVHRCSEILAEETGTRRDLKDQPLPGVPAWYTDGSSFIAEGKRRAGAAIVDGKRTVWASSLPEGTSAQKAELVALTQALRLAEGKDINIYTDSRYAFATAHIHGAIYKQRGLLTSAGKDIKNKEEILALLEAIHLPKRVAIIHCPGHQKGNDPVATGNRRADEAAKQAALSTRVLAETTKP

COC1C=COC2(C)Oc3c(C)c(O)c4c(O)c(c(C=NNc5ccccc5[N+](=O)[O-])c(O)c4c3C2=O)NC(=O)C(C)=CC=CC(C)C(O)C(C)C(O)C(C)C(OC(C)=O)C1C (centres unmarked) [Example 35]
MIC [1]: 20 µg/mL (≈ 23.2 µM)

COC1C=COC2(C)Oc3c(C)c(O)c4c(O)c(c(C=NNc5ccnc6c(C(F)(F)F)cccc56)c(O)c4c3C2=O)NC(=O)C(C)=CC=CC(C)C(O)C(C)C(O)C(C)C(OC(C)=O)C1C (centres unmarked) [Example 22]
MIC [1]: 50 µg/mL (≈ 53.5 µM)

COC1C=COC2(C)Oc3c(C)c(O)c4c(O)c(cc(OCC(=O)O)c4c3C2=O)NC(=O)C(C)=CC=CC(C)C(O)C(C)C(O)C(C)C(OC(C)=O)C1C (centres unmarked) [rifamycin B]
remaining activity at 10 µg [2]: 102% | remaining activity at 100 µg [2]: 95% | % Control Activity of SSV-DNA-P at 5μg [3]: 96% | % Control Activity of SSV-DNA-P at 10μg [3]: 104% | % Control Activity of SSV-DNA-P at 100μg [3]: 75% | % Control Activity of ME-DNA-P1 at 10μg [4]: 103% | % Control Activity of ME-DNA-P1 at 100μg [4]: 81% | remaining activity at 10 µg [5]: 76% | remaining activity at 100 µg [5]: 85% | % Control Activity of ME-DNA-P2 at 10μg [6]: 46% | % Control Activity of ME-DNA-P2 at 100μg [6]: 4%

COC1C=COC2(C)Oc3c(C)c(O)c4c(O)c(c(C=NNCCOc5c(Cl)cc(N)cc5Cl)c(O)c4c3C2=O)NC(=O)C(C)=CC=CC(C)C(O)C(C)C(O)C(C)C(OC(C)=O)C1C (centres unmarked) [Example 34]
MIC [1]: 50 µg/mL (≈ 53 µM)

COC1C=COC2(C)Oc3c(C)c(O)c4c(O)c(c(C=NNc5cccc(C)c5)c(O)c4c3C2=O)NC(=O)C(C)=CC=CC(C)C(O)C(C)C(O)C(C)C(OC(C)=O)C1C (centres unmarked) [Example 26]
MIC [1]: 20 µg/mL (≈ 24.1 µM)

CO[C@H]1/C=C/O[C@@]2(C)Oc3c(C)c(O)c4c(c3C2=O)C(=O)C=C(NC(=O)/C(C)=C\C=C\[C@H](C)[C@H](O)[C@@H](C)[C@@H](O)[C@@H](C)[C@H](OC(C)=O)[C@@H]1C)C4=O [rifamycin S]
remaining activity at 10 µg [2]: 78% | remaining activity at 100 µg [2]: 81% | % Control Activity of SSV-DNA-P at 5μg [3]: 88% | % Control Activity of SSV-DNA-P at 10μg [3]: 108% | % Control Activity of SSV-DNA-P at 100μg [3]: 100% | % Control Activity of ME-DNA-P1 at 10μg [4]: 84% | % Control Activity of ME-DNA-P1 at 100μg [4]: 86% | remaining activity at 10 µg [5]: 102% | remaining activity at 100 µg [5]: 90% | % Control Activity of ME-DNA-P2 at 10μg [6]: 94% | % Control Activity of ME-DNA-P2 at 100μg [6]: 9%

COC1C=COC2(C)Oc3c(C)c(O)c4c(O)c(c(C=NNc5cccc([N+](=O)[O-])c5)c(O)c4c3C2=O)NC(=O)C(C)=CC=CC(C)C(O)C(C)C(O)C(C)C(OC(C)=O)C1C (centres unmarked) [Example 36]
MIC [1]: 50 µg/mL (≈ 58.1 µM)

COC1C=COC2(C)Oc3c(C)c(O)c4c(c3C2=O)C2(C=C(NC(=O)C(C)=CC=CC(C)C(O)C(C)C(O)C(C)C(OC(C)=O)C1C)C4=O)OCC(=O)O2 (centres unmarked) [rifamycin O]
remaining activity at 10 µg [2]: 93% | remaining activity at 100 µg [2]: 65% | % Control Activity of SSV-DNA-P at 5μg [3]: 100% | % Control Activity of SSV-DNA-P at 10μg [3]: 98% | % Control Activity of SSV-DNA-P at 100μg [3]: 83% | % Control Activity of ME-DNA-P1 at 10μg [4]: 92% | % Control Activity of ME-DNA-P1 at 100μg [4]: 65% | remaining activity at 10 µg [5]: 77% | remaining activity at 100 µg [5]: 75% | % Control Activity of ME-DNA-P2 at 10μg [6]: 97% | % Control Activity of ME-DNA-P2 at 100μg [6]: 5%

COC1C=COC2(C)Oc3c(C)c(O)c4c(O)c(c(C=NNc5ccccc5)c(O)c4c3C2=O)NC(=O)C(C)=CC=CC(C)C(O)C(C)C(O)C(C)C(OC(C)=O)C1C (centres unmarked) [Phenylhydrazone of 3-formylrifamycin SV]
MIC [1]: 100 µg/mL (≈ 123 µM)

COC1C=COC2(C)Oc3c(C)c(O)c4c(O)c(c(C=NNc5cc(-c6ccccc6)nc6cc(C(F)(F)F)ccc56)c(O)c4c3C2=O)NC(=O)C(C)=CC=CC(C)C(O)C(C)C(O)C(C)C(OC(C)=O)C1C (centres unmarked) [Example 23]
MIC [1]: 20 µg/mL (≈ 19.8 µM)

COC1C=COC2(C)Oc3c(C)c(O)c4c(O)c(c(C=NNc5cc(C)c6cccc(C)c6n5)c(O)c4c3C2=O)NC(=O)C(C)=CC=CC(C)C(O)C(C)C(O)C(C)C(OC(C)=O)C1C (centres unmarked) [Example 25]
MIC [1]: 20 µg/mL (≈ 22.3 µM)

COc1ccccc1NN=Cc1c2c(O)c3c(O)c(C)c4c(c3c1O)C(=O)C(C)(OC=CC(OC)C(C)C(OC(C)=O)C(C)C(O)C(C)C(O)C(C)C=CC=C(C)C(=O)N2)O4 (centres unmarked) [Example 33]
MIC [1]: 50 µg/mL (≈ 59.1 µM)

COC1C=COC2(C)Oc3c(C)c(O)c4c(O)c(c(C=NNc5c(Cl)cc(Cl)cc5Cl)c(O)c4c3C2=O)NC(=O)C(C)=CC=CC(C)C(O)C(C)C(O)C(C)C(OC(C)=O)C1C (centres unmarked) [Example 39]
MIC [1]: 5 µg/mL (≈ 5.44 µM)

CCN(CC)N=Cc1c2c(O)c3c(O)c(C)c4c(c3c1O)C(=O)C(C)(OC=CC(OC)C(C)C(OC(C)=O)C(C)C(O)C(C)C(O)C(C)C=CC=C(C)C(=O)N2)O4 (centres unmarked) [N,N-Diethylhydrazone of 3-formylrifamycin SV]
MIC [1]: > 100 µg/mL
